# In patent US8546392B2, “17Beta-hydroxysteroid dehydrogenase type 1 inhibitors for the treatment of hormone-related diseases” (Universitaet des Saarlandes, priority 2008, dated 2013):
# Assays:
# 17β-HSD1 = 17β-HSD1 (Homo sapiens (Human), UniProt P14061); experiment: 17β-HSD1 test assay (recombinant protein from Sf9 insect cells, 3H-estrone/NADPH); type: biochemical
# In short: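 Sf9-expressed recombinant enzyme (0.1 μg/ml) with 30 nM 3H-estrone and 1 mM NADPH in 20 mM KH2PO4 pH 7.4, 30 min at RT; inhibitor at 1 μM or 100 nM, 1% DMSO final. Quenched with TCA; conversion measured by reversed-phase HPLC with flow scintillation detection.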
# 17β-HSD2 = 17β-HSD2 (Homo sapiens (Human), UniProt P37059); experiment: 17β-HSD2 test assay (recombinant protein from Sf9 insect cells, 3H-estradiol/NAD+); type: biochemical
# Sequence of 17β-HSD2 (P37059 whole entry): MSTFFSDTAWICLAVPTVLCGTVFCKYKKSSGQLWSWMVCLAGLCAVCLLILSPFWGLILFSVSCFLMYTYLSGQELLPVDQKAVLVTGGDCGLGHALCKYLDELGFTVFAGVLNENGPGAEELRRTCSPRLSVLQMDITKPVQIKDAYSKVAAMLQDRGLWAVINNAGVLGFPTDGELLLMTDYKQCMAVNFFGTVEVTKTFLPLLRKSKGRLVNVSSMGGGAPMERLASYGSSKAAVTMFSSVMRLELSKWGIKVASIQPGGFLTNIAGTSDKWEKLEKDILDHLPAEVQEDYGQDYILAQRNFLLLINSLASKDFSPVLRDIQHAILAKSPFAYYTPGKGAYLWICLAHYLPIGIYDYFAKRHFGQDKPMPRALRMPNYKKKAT
# Procedure: Recombinant protein obtained from Sf9 insect cells (0.1 μg/ml) is incubated with 20 mM KH2PO4, pH 7.4, 30 nM ^3H-estradiol and 1 mM NAD+ for 30 min at RT in the presence of the potential inhibitor in a concentration of 1 μM or 100 nM. The stock solutions of the compounds are prepared in DMSO so that the final concentration of DMSO in the sample is 1%. After the prescribed incubation time, the reaction is quenched by adding trichloroacetic acid (10% final concentration). The samples are centrifuged in microtitration plates at 400 rpm for 10 min, and the supernatants are charged on a reversed-phase HPLC equipped with a Waters Symmetrie C18 column and
# Waters Sentry Guard column. The isocratic HPLC run is performed at RT with a flow rate of 1 ml/min and acetonitrile/water 48:52 as the eluent. The radioactivity was measured by means of a Packard Flow Scintillation Analyzer. The percent inhibition was calculated by means of the formulas stated above.
# [1] = CaCo-2 assay (transport experiments); type: in vitro ADME; details: human, Caco-2; initial donor concentration 50 μM
# Procedure: (§1) Four reference compounds (atenolol, testosterone, ketoprofene and erythromycin) were employed in each assay for evaluating the transport properties of the CaCo-2 cells. The initial concentration of the compounds in the donor compartment was 50 μM (in buffer with 1% ethanol or DMSO). […] For glycoprotein P (P-gp) studies, bidirectional experiments were performed. The absorptive and secretory permeabilities (Papp(a-b) and Papp(b-a)) were determined. Thus, erythromycin was used as a substrate, and verapamil was used as an inhibitor of P-gp. Each experiment was performed in triplicate. The integrity of the monolayer was determined by means of TEER (transepithelial electric resistance) and the permeability for each assay was determined using Lucifer Yellow. All samples of the CaCo-2 transport experiments were analyzed by means of LC/MS/MS after dilution with buffer (1:1 with 2% acetic acid).
# CaCo-2 cells = experiment: CaCo-2 assay (transport experiments); type: in vitro ADME
# Procedure: as §1
# CYP2D6 = CYP2D6 (Homo sapiens (Human), UniProt P10635); experiment: P450 inhibition assay CYP2D6; type: biochemical; details: read-out: IC50 (mean ± SD) [μM] CYP2D6
# Sequence of CYP2D6 (P10635 whole entry): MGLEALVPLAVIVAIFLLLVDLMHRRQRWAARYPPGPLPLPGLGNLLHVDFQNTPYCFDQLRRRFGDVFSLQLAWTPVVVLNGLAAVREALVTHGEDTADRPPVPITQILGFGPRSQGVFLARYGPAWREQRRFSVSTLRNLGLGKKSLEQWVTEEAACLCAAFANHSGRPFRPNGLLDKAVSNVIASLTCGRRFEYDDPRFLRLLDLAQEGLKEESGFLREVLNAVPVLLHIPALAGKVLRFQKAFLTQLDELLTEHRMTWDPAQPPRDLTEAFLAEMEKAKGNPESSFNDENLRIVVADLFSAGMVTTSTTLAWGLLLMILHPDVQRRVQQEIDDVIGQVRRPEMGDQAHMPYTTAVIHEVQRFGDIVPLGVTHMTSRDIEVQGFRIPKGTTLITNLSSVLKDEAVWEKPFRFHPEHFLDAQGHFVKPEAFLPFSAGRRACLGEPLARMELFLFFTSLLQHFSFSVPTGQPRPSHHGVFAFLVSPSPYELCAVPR
# CYP3A4 = CYP3A4 (Homo sapiens (Human), UniProt P08684); experiment: P450 inhibition assay CYP3A4; type: biochemical; details: read-out: IC50 (mean ± SD) [μM] CYP3A4
# Sequence of CYP3A4 (P08684 whole entry): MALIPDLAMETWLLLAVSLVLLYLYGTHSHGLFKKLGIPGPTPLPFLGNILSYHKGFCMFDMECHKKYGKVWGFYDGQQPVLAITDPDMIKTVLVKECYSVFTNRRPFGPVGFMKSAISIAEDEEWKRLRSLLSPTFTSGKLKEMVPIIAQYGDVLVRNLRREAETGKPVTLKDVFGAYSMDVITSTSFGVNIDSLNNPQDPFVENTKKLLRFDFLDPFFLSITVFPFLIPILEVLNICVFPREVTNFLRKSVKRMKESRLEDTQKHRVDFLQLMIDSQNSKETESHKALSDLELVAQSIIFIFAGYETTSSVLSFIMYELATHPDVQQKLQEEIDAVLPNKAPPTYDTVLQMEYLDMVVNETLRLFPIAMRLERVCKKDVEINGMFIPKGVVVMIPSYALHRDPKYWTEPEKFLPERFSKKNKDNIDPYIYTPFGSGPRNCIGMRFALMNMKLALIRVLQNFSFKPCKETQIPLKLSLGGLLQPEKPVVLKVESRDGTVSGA
# [2] = In vivo pharmacokinetics (rat), single oral administration; details: single oral administration 50 mg/kg, male Wistar rats
# CYP1A2 = CYP1A2 (Homo sapiens (Human), UniProt P05177); experiment: P450 inhibition assay CYP1A2
# Sequence of CYP1A2 (P05177 whole entry): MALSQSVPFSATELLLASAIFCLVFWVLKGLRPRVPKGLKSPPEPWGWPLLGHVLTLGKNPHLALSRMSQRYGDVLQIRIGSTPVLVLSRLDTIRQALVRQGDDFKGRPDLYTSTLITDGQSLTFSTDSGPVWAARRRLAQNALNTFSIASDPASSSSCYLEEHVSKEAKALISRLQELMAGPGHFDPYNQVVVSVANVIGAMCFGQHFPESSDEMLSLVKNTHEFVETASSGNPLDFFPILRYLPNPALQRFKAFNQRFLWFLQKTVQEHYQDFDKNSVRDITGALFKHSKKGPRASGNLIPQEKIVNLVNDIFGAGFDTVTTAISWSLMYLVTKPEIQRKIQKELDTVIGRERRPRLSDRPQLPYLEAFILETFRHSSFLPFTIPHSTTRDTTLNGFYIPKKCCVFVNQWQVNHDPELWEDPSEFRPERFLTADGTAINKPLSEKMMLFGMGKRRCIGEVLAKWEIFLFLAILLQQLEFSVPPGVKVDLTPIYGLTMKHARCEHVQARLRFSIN
# CYP2B6 = CYP2B6 (Homo sapiens (Human), UniProt P20813); experiment: P450 inhibition assay CYP2B6; details: read-out: IC50 (mean ± SD) [μM] CYP2B6
# Sequence of CYP2B6 (P20813 whole entry): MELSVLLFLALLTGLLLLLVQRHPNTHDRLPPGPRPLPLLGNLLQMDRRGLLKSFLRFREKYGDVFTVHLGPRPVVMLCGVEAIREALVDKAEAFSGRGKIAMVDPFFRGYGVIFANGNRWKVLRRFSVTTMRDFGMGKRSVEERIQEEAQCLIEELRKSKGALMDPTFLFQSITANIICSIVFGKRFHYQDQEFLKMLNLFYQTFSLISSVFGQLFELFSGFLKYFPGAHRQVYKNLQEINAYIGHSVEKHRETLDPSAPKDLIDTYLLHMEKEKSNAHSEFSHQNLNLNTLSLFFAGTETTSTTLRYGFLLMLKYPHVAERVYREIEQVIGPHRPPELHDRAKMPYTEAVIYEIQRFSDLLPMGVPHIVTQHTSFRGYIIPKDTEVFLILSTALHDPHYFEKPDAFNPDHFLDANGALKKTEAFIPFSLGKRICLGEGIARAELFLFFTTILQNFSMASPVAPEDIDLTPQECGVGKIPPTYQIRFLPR
# CYP2C9 = CYP2C9 (Homo sapiens (Human), UniProt P11712); experiment: P450 inhibition assay CYP2C9; details: read-out: IC50 (mean ± SD) [μM] CYP2C9
# Sequence of CYP2C9 (P11712 whole entry): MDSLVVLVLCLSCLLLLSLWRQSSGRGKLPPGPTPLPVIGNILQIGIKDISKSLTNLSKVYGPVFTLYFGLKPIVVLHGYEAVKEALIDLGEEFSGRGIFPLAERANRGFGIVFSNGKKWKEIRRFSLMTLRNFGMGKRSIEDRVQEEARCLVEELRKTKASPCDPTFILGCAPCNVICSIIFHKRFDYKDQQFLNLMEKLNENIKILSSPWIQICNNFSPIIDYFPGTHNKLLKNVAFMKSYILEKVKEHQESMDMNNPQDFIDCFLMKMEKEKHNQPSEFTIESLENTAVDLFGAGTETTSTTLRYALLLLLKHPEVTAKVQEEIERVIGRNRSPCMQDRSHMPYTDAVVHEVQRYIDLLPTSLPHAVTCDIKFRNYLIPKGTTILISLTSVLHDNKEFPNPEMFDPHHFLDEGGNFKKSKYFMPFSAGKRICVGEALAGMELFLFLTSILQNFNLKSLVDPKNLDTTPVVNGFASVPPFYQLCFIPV
# CYP2C19 = CYP2C19 (Homo sapiens (Human), UniProt P33261); experiment: P450 inhibition assay CYP2C19; details: read-out: IC50 (mean ± SD) [μM] CYP2C19
# Sequence of CYP2C19 (P33261 whole entry): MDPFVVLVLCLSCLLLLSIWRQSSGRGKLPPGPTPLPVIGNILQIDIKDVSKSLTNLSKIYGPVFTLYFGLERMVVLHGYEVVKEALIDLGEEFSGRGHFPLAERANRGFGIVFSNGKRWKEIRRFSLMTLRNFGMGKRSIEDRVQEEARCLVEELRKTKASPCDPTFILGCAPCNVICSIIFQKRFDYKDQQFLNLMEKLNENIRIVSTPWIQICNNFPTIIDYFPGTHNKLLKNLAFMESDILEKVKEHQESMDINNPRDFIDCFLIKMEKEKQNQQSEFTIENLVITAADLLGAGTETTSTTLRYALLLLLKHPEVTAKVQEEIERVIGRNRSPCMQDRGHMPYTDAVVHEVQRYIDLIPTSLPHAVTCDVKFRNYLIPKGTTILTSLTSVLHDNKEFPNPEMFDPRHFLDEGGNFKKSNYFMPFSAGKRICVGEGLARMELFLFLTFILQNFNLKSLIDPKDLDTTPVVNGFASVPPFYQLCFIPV
# [3] = Test for metabolic stability, liver microsomes
# Procedure: The assay was performed with liver microsomes of rats.
# The incubation solution (180 μl) consists of 90 μl of a microsomal suspension of 0.33 mg/ml protein in 100 mM phosphate buffer, pH 7.4, with 90 μl NADP-regenerating system (NADP: 1 mM, glucose-6-phosphate 5 mM, glucose-6-phosphate dehydrogenase: 5 U/ml, MgCl2 5 mM).
# The reaction is started by adding 20 μl of the compound to be tested in 20% ACN to the microsome/buffer mixture preincubated at 37° C. After 0, 15, 30 and 60 minutes, 200 μl of sample solution is withdrawn and subjected to ACN precipitation. The isolation of the compounds is effected by adding 200 μl ACN that contains the internal standard (1 μM) to 200 μl of sample solution and calibration standard. After shaking for 10 s and centrifugation at 4000 g, an aliquot of the supernatant is subjected to LC-MS/MS. Two controls are included, namely a positive control with 7-ethoxycoumarin as a reference to verify the microsomal enzyme activity, and a negative control in which microsomes are used that were heated for 25 minutes without a regenerating system, in order to ensure that the loss of substance is actually due to metabolization.
# The amount of compound in a sample is expressed as the percent fraction of the compound remaining as compared to time t=0 (100%). The percent fraction is plotted versus time.
# Sequence of 17β-HSD1 (P14061 whole entry): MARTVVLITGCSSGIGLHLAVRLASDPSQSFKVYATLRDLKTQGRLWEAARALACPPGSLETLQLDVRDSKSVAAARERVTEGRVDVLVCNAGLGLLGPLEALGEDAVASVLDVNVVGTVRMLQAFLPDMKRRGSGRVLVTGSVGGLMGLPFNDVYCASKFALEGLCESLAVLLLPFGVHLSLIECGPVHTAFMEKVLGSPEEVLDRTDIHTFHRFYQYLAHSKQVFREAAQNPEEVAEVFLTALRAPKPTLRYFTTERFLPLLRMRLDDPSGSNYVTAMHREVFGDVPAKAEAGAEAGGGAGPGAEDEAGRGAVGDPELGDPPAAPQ
smiles,measurement,setting,value
"Oc1cccc(-c2ccc3c(-c4cccnc4)c(O)ccc3c2)c1 [Compound 59, 6-(3-Hydroxyphenyl)-1-(pyridin-3-yl)naphthalene-2-ol]",inhibition at 1 µM,17β-HSD1; read-out: HSD 1 μM (% inhibition of HSD1),92.3%
same,inhibition at 0.1 µM,17β-HSD1; read-out: HSD1 100 nM (% inhibition),87.4%
same,inhibition at 0.1 µM,"17β-HSD2; read-out: HSD2 100 nM (% inhibition), inhibitor 100 nM",66.1%
same,inhibition at 1 µM,"17β-HSD2; read-out: HSD2 1 μM (% inhibition), inhibitor 1 μM",90.3%
same,"Papp at 180 min, 50 μM",[1],13.8 ×10⁻⁶ cm/s
same,mass balance [% ± SD],CaCo-2 cells,29.9 ± 2.4%
same,Permeability,CaCo-2 cells; class in words,high
same,final basolateral concentration [μM ± SD],CaCo-2 cells; initial donor concentration 50 μM,11.0 ± 0.5 µM
same,IC50,CYP2D6,22.9 ± 1.85 µM
same,IC50,CYP3A4,0.221 ± 0.002 µM
same,AUC(0-t),"[2]; rat, plasma",203 ng·h/mL
same,Tmax,"[2]; rat, plasma",2 h
same,AUC(0-inf),"[2]; rat, plasma, extrapolated to ∞",203 ng·h/mL
same,t1/2z,[2],1.54 h
same,tz,[2],8.0 h
same,IC50,CYP1A2,14 nM
same,IC50,CYP2B6,5.34 ± 0.391 µM
same,IC50,CYP2C9,0.15 ± 0.03 µM
same,IC50,CYP2C19,0.88 ± 0.03 µM
same,Slope (−k),[3]; rat liver microsomes,−0.051
same,half-life,"[3]; rat, liver microsomes, pH 7.4",0.227 h
same,microsomal CLint,"[3]; rat, liver microsomes, pH 7.4",340 µL/min/mg
